Earlier results in paper PMC3618595 (Pharmaceutical research, 2013).

How the values were obtained:
hASBT = target: T1, hASBT (Homo sapiens, UniProt Q12908); settings: taurocholate; cited from earlier work
T1 sequence (Q12908 1-348): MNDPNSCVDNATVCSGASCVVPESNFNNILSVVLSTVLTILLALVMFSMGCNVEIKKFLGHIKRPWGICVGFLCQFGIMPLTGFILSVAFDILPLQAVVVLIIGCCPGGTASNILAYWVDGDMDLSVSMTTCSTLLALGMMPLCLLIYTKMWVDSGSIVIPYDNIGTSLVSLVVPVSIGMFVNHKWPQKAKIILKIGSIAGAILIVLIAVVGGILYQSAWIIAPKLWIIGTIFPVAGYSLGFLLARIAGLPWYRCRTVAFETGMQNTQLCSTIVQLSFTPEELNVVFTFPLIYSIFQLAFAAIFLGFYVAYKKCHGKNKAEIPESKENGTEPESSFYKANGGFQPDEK

[1] = cited from earlier work
plasma proteins = settings: cited from earlier work

| SMILES | Km (hASBT) [µM] | Octanol/water partition coefficient [1] | Binding to plasma proteins (plasma proteins) [%] |
| --- | --- | --- | --- |
| C[C@H](CCC(=O)NCCS(=O)(=O)O)[C@H]1CC[C@H]2[C@@H]3[C@H](O)C[C@@H]4C[C@H](O)CC[C@]4(C)[C@H]3C[C@H](O)[C@]12C [taurocholate] | 4.39 |  |  |
| C[C@H](CCC(=O)O)[C@H]1CC[C@H]2[C@@H]3[C@H](O)C[C@@H]4C[C@H](O)CC[C@]4(C)[C@H]3CC[C@]12C [chenodeoxycholic acid] |  | 23.3 | 96.2 |
